What was measured:
[1] = Final ceftazidime PopPK model; assay type: in vivo, human
[2] = Individual predicted steady‐state exposures; assay type: in vivo, human; conditions: for AUC / Cmax: human, plasma
[3] = taken to be; ref not given; cited from earlier work

CC(C)(O/N=C(\C(=O)N[C@@H]1C(=O)N2C(C(=O)[O-])=C(C[n+]3ccccc3)CS[C@H]12)c1csc(N)n1)C(=O)O [Ceftazidime, ceftazidime]
lower V c ([1]; Asian compared with non‐Asian patients): 27%
lower CL ([1]; Chinese patients vs non‐Asians): 9%
Slope 1: CrCL < 100 mL/min, slope1*CrCL ([1]; CrCL effect on CL): 0.0103
lower V c ([1]; body weight at 10th percentile (50 kg) vs median weight (70 kg)): 24%
clearance ([1]; human, plasma, intravenous, θ1: CL, typical value): 116 mL/min
θ9: Population effect on V c (cUTI) ([1]; in vivo): 1.03
θ10: Population effect on V c (cIAI or NP) ([1]; in vivo): 1.14
θ13: WT effect on V c ([1]; in vivo): 1.01
θ14: Population effect on V c (NPv) ([1]; in vivo): 0.297
lower CL ([1]; non‐Chinese, non‐Japanese Asians vs non‐Asians): 16%
higher V c ([1]; patients with NPv vs non‐NPv patients): 29.7%
higher CL ([1]; patients with cIAI vs. healthy subjects and patients with cUTI): 16%
θ2: V c ([1]; typical value): 10.5 L
θ3: Q ([1]; typical value): 31.5 L/h
θ4: V p ([1]; typical value): 7.57 L
AUC ([2]; AUCss,0–24 geometric mean (CV), Age (years) 18–65): 800 µg·h/mL
AUC ([2]; AUCss,0–24 geometric mean (CV), Age (years) > 65–75): 997 µg·h/mL
AUC ([2]; AUCss,0–24 geometric mean (CV), Age (years) > 75–89): 1100 µg·h/mL
AUC ([2]; AUCss,0–24 geometric mean (CV), Asian population: China (only)): 892 µg·h/mL
AUC ([2]; AUCss,0–24 geometric mean (CV), Asian population: Japan): 1020 µg·h/mL
AUC ([2]; AUCss,0–24 geometric mean (CV), Baseline WBC count Missing): 924 µg·h/mL
AUC ([2]; AUCss,0–24 geometric mean (CV), Concomitant use of OAT1/OAT3 inhibitor(s): No): 869 µg·h/mL
AUC ([2]; AUCss,0–24 geometric mean (CV), Concomitant use of OAT1/OAT3 inhibitor(s): Yes): 934 µg·h/mL
AUC ([2]; AUCss,0–24 geometric mean (CV), Fever at baseline: Missing): 929 µg·h/mL
AUC ([2]; AUCss,0–24 geometric mean (CV), Fever at baseline: No): 888 µg·h/mL
AUC ([2]; AUCss,0–24 geometric mean (CV), Fever at baseline: Yes): 859 µg·h/mL
AUC ([2]; AUCss,0–24 geometric mean (CV), Obesity I (29.9 ≤ BMI < 34.9 kg/m^2)): 841 µg·h/mL
AUC ([2]; AUCss,0–24 geometric mean (CV), Obesity II (34.9 ≤ BMI < 39.9 kg/m^2)): 894 µg·h/mL
AUC ([2]; AUCss,0–24 geometric mean (CV), Obesity III (BMI ≥ 39.9 kg/m^2)): 806 µg·h/mL
AUC ([2]; AUCss,0–24 geometric mean (CV), Obesity: Missing): 959 µg·h/mL
AUC ([2]; AUCss,0–24 geometric mean (CV), Obesity: Normal): 878 µg·h/mL
AUC ([2]; AUCss,0–24 geometric mean (CV), Race: Asian (non‐Chinese; non‐Japanese)): 968 µg·h/mL
AUC ([2]; AUCss,0–24 geometric mean (CV), Race: Chinese and Taiwanese): 884 µg·h/mL
AUC ([2]; AUCss,0–24 geometric mean (CV), Race: Japanese): 1020 µg·h/mL
AUC ([2]; AUCss,0–24 geometric mean (CV), Race: White/other): 848 µg·h/mL
Cmax ([2]; C max,ss geometric mean (CV), Age (years) 18–65): 70 µg/mL
Cmax ([2]; C max,ss geometric mean (CV), Age (years) > 65–75): 77.1 µg/mL
Cmax ([2]; C max,ss geometric mean (CV), Age (years) > 75–89): 76.8 µg/mL
Cmax ([2]; C max,ss geometric mean (CV), Asian population: China (only)): 78.4 µg/mL
Cmax ([2]; C max,ss geometric mean (CV), Asian population: Japan): 90.4 µg/mL
Cmax ([2]; C max,ss geometric mean (CV), Asian population: Korea): 79.9 µg/mL
Cmax ([2]; C max,ss geometric mean (CV), Concomitant use of OAT1/OAT3 inhibitor(s): No): 71.7 µg/mL
Cmax ([2]; C max,ss geometric mean (CV), Concomitant use of OAT1/OAT3 inhibitor(s): Yes): 78.5 µg/mL
Cmax ([2]; C max,ss geometric mean (CV), Fever at baseline: Missing): 75.1 µg/mL
Cmax ([2]; C max,ss geometric mean (CV), Fever at baseline: No): 71.9 µg/mL
Cmax ([2]; C max,ss geometric mean (CV), Fever at baseline: Yes): 72.1 µg/mL
Cmax ([2]; C max,ss geometric mean (CV), Obesity I (29.9 ≤ BMI < 34.9 kg/m^2)): 67.9 µg/mL
Cmax ([2]; C max,ss geometric mean (CV), Obesity II (34.9 ≤ BMI < 39.9 kg/m^2)): 73.7 µg/mL
Cmax ([2]; C max,ss geometric mean (CV), Obesity III (BMI ≥ 39.9 kg/m^2)): 64.2 µg/mL
Cmax ([2]; C max,ss geometric mean (CV), Obesity: Missing): 70.9 µg/mL
Cmax ([2]; C max,ss geometric mean (CV), Obesity: Normal): 73 µg/mL
Cmax ([2]; C max,ss geometric mean (CV), Race: Asian (non‐Chinese; non‐Japanese)): 82.2 µg/mL
Cmax ([2]; C max,ss geometric mean (CV), Race: Chinese and Taiwanese): 77.6 µg/mL
Cmax ([2]; C max,ss geometric mean (CV), Race: Japanese): 90.4 µg/mL
Cmax ([2]; C max,ss geometric mean (CV), Race: White/other): 68.6 µg/mL
AUC ([2]; intravenous): 748 µg·h/mL
Cmax ([2]; intravenous): 67 µg/mL
AUC ([2]; intravenous, 187.5 mg, AUCss,0–24 geometric mean (CV), Day 3 CrCL 8–15 mL/min (750‐187.5 mg q24 h)): 551 µg·h/mL
Cmax ([2]; intravenous, 187.5 mg, C max,ss geometric mean (CV), Day 3 CrCL 8–15 mL/min (750‐187.5 mg q24 h)): 34.3 µg/mL
AUC ([2]; intravenous, 500 mg, AUCss,0–24 geometric mean (CV), Day 3 CrCL > 150–180 mL/min (2000‐500 mg q8 h)): 652 µg·h/mL
Cmax ([2]; intravenous, 500 mg, C max,ss geometric mean (CV), Day 3 CrCL > 150–180 mL/min (2000‐500 mg q8 h)): 58.5 µg/mL
AUC ([2]; intravenous, AUCss,0–24 geometric mean (CV), Asian population: Korea): 952 µg·h/mL
AUC ([2]; intravenous, AUCss,0–24 geometric mean (CV), Asian population: Taiwan): 728 µg·h/mL
AUC ([2]; intravenous, AUCss,0–24 geometric mean (CV), Asian population: Vietnam): 852 µg·h/mL
AUC ([2]; intravenous, AUCss,0–24 geometric mean (CV), Bacteremia at baseline: No): 881 µg·h/mL
AUC ([2]; intravenous, AUCss,0–24 geometric mean (CV), Bacteremia at baseline: Yes): 919 µg·h/mL
AUC ([2]; intravenous, AUCss,0–24 geometric mean (CV), Baseline APACHE II score > 10): 938 µg·h/mL
AUC ([2]; intravenous, AUCss,0–24 geometric mean (CV), Baseline APACHE II score Missing): 979 µg·h/mL
AUC ([2]; intravenous, AUCss,0–24 geometric mean (CV), Baseline WBC count (cells/μL) > 12,000): 801 µg·h/mL
AUC ([2]; intravenous, AUCss,0–24 geometric mean (CV), Baseline WBC count (cells/μL) ≤ 12,000): 923 µg·h/mL
AUC ([2]; intravenous, AUCss,0–24 geometric mean (CV), Patient population: NP): 950 µg·h/mL
AUC ([2]; intravenous, AUCss,0–24 geometric mean (CV), Patient population: Non‐VAP): 1020 µg·h/mL
AUC ([2]; intravenous, AUCss,0–24 geometric mean (CV), Patient population: VAP): 830 µg·h/mL
AUC ([2]; intravenous, AUCss,0–24 geometric mean (CV), Patient population: cIAI): 749 µg·h/mL
AUC ([2]; intravenous, AUCss,0–24 geometric mean (CV), Patient population: cUTI): 979 µg·h/mL
AUC ([2]; intravenous, AUCss,0–24 geometric mean (CV), SIRS at baseline: Missing): 977 µg·h/mL
AUC ([2]; intravenous, AUCss,0–24 geometric mean (CV), SIRS at baseline: No): 895 µg·h/mL
AUC ([2]; intravenous, AUCss,0–24 geometric mean (CV), SIRS at baseline: Yes): 869 µg·h/mL
Cmax ([2]; intravenous, C max,ss geometric mean (CV), Asian population: Taiwan): 59.4 µg/mL
Cmax ([2]; intravenous, C max,ss geometric mean (CV), Asian population: Vietnam): 78.6 µg/mL
Cmax ([2]; intravenous, C max,ss geometric mean (CV), Bacteremia at baseline: No): 71.9 µg/mL
Cmax ([2]; intravenous, C max,ss geometric mean (CV), Bacteremia at baseline: Yes): 73.6 µg/mL
Cmax ([2]; intravenous, C max,ss geometric mean (CV), Baseline APACHE II score > 10): 72.3 µg/mL
Cmax ([2]; intravenous, C max,ss geometric mean (CV), Baseline APACHE II score Missing): 77.9 µg/mL
Cmax ([2]; intravenous, C max,ss geometric mean (CV), Baseline WBC count (cells/μL) > 12,000): 67.6 µg/mL
Cmax ([2]; intravenous, C max,ss geometric mean (CV), Baseline WBC count (cells/μL) ≤ 12,000): 74.6 µg/mL
Cmax ([2]; intravenous, C max,ss geometric mean (CV), Patient population: NP): 72.9 µg/mL
Cmax ([2]; intravenous, C max,ss geometric mean (CV), Patient population: Non‐VAP): 79 µg/mL
Cmax ([2]; intravenous, C max,ss geometric mean (CV), Patient population: VAP): 61.9 µg/mL
Cmax ([2]; intravenous, C max,ss geometric mean (CV), Patient population: cIAI): 66.9 µg/mL
Cmax ([2]; intravenous, C max,ss geometric mean (CV), Patient population: cUTI): 77.9 µg/mL
Cmax ([2]; intravenous, C max,ss geometric mean (CV), SIRS at baseline: Missing): 83.5 µg/mL
Cmax ([2]; intravenous, C max,ss geometric mean (CV), SIRS at baseline: No): 72.3 µg/mL
Cmax ([2]; intravenous, C max,ss geometric mean (CV), SIRS at baseline: Yes): 71.5 µg/mL
difference in steady‐state exposure vs. healthy volunteers ([2]; most patient subgroups): ≤ 20%
lower C max,ss ([2]; patients with VAP vs non‐VAP patients): ~ 20%
free plasma concentrations as % of total plasma concentrations [3]: 85%
